Assay: Relative intake (total food intake/average body weight) of IUGR rats
Assay type: in vivo
Details: diet with 4.5 wt % HMO(s), vs IUGR rats control; for relative intake, period day 22-day 29: FIG. 4A/5A; for relative intake, period day 22-day 36: FIG. 4B/5B
Text: A wide group of pregnant female rats were bought from Charles River laboratories. Some of them were submitted to food restriction of 60% during the last 10 days of gestation. Immediately after birth (d=1), the born rat pups—subjects of the experiment—were split intoseveral groups: • Normal rats (reference): no IUGR (Intrauterine growth restriction) during their mothers' pregnancy (n=20). • IUGR rats (control): […] LNnT or 2FL+LNnT (in a weight ratio 2:1), see details below. All rat pups were fed from birth (d=1) up to 57 days (d=57) based on the following protocol: • day 1-day 6: all groups of rats were nursed by dam (mothers' milk only) • day 7-day 21: all rats were nursed by dam (mothers' milk only). […] To assess the efficiency of the feeding of these rats, especially tosee whether the feeding imply a healthy growth or not, several parameters were calculated, including: • the lean mass: it corresponds to the amount of weight in the body composition that is not fat. It was measured by magnetic resonance imaging. • the relative intake: it corresponds to the total food intake divided by the average body weight of a specified period. It was assessed for several periods during the entire experiment (so the total of food ingested was measured in continuous during several days to make the calculation). Significance was assessed using the […].

Row | Molecule | relative intake, period day 22-day 29 | relative intake, period day 22-day 36
1 | 2′-fucosyllactose [2FL] | significantly increased | significantly increased
2 | CC(=O)N[C@H]1[C@H](O[C@H]2[C@@H](O)[C@@H](CO)O[C@@H](O[C@H]3[C@H](O)[C@@H](O)C(O)O[C@@H]3CO)[C@@H]2O)O[C@H](CO)[C@@H](O[C@@H]2O[C@H](CO)[C@H](O)[C@H](O)[C@H]2O)[C@@H]1O (mixture of isomers) [LNnT, lacto-N-neotetraose] | significantly increased | significantly increased

Source: patent US10609945B2, “Compositions comprising 2FL and LNnT to control food intake and growth in infants or young children” (NESTEC S.A., priority 2016, dated 2020)
